Reference: paper PMC10861852, “Loss of activation by GABA in vertebrate delta ionotropic glutamate receptors” (Proceedings of the National Academy of Sciences of the …, 2024)
Changes are numbered by the printed parent chain. Where two headings read alike, the source gives them in different places.

How the values were obtained:
[1] = molecular target: T1, RatGluD2^Lc (Rattus norvegicus, UniProt Q63226, A654T); test: Two-electrode voltage clamp, inhibition of constitutive current in oocytes; settings: each n = 4
T1 sequence (Q63226 24-1007 A654T): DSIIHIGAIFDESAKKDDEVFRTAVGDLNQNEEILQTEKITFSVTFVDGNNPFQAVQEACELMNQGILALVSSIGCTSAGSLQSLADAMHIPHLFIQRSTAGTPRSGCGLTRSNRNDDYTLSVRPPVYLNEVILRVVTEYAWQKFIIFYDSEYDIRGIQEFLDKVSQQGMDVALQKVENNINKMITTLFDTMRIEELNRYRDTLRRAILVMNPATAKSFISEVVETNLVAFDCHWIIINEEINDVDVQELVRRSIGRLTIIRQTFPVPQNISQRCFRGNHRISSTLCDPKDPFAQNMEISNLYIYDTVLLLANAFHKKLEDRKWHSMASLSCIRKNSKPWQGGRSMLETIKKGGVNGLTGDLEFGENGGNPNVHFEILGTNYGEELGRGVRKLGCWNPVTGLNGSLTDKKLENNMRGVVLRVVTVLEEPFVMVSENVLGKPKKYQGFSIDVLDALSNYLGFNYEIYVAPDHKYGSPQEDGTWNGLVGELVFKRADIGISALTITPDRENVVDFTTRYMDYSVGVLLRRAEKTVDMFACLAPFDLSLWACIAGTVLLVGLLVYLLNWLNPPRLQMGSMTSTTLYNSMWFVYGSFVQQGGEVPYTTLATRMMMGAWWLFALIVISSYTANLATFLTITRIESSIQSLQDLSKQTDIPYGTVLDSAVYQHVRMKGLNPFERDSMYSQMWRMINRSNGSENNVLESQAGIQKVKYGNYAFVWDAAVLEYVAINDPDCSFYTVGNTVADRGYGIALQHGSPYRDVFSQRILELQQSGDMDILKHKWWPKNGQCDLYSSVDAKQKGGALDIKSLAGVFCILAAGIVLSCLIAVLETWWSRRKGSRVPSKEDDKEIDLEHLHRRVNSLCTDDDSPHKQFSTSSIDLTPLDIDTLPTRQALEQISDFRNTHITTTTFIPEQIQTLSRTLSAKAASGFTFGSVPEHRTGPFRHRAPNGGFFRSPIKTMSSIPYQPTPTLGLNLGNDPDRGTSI
Description: (C) Left panels, example recordings of oocytes expressing A654T lurcher-mutant RatGluD2 (RatGluD2Lc) in response to indicated AMPA iGluR antagonists and D-serine. Dashed line, zero current baseline. Right panel, % inhibition at different oocytes (dots) and resulting means (columns).

[2] = molecular target: T2, AcaGluD (Acanthaster planci, UniProt A0A8B7XXR5); test: Two-electrode voltage clamp, ligand-gated currents in oocytes; assay type: cell-based
T2 sequence (A0A8B7XXR5 24-958): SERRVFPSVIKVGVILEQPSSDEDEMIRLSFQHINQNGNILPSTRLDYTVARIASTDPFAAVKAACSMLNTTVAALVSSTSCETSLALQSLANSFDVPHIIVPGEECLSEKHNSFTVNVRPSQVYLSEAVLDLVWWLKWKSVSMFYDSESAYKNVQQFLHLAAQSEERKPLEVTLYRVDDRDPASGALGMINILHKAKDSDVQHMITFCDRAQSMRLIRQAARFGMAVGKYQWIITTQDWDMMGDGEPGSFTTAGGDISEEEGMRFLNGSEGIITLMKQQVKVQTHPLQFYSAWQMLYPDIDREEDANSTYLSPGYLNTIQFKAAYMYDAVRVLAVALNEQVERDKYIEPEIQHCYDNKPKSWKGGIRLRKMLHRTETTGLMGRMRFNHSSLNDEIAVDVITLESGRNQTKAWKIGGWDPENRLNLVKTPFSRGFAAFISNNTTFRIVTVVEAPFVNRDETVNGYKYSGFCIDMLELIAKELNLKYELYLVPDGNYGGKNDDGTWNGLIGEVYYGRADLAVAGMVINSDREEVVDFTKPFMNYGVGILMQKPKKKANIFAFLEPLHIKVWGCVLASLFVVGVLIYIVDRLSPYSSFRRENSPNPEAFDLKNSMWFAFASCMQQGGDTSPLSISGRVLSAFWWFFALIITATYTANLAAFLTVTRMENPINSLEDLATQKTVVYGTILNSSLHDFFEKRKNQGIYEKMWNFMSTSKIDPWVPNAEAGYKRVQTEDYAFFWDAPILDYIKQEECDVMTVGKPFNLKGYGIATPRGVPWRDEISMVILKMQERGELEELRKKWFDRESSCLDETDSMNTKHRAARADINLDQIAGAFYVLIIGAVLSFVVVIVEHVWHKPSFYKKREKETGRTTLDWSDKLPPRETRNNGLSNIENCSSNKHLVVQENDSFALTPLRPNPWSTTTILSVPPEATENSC

[3] = molecular target: T3, WT RatGluD2 (Rattus norvegicus, UniProt Q63226); test: Two-electrode voltage clamp in oocytes; assay type: cell-based; settings: n = 4
T3 construct: expressed in transfected cells; host or cells: Xenopus laevis oocytes injected with mRNA
T3 sequence (Q63226 24-1007): T1 sequence (Q63226 24-1007 A654T) with T631A

[4] = molecular target: T4, RatGluD2^Lc^-9x (Rattus norvegicus, UniProt Q63226, A654T/A686S/D753Q/K694R/N720P/N763K/P806D/Q786M/R787V/Y613F); test: Two-electrode voltage clamp, responses to ligands in mutant-expressing oocytes; assay type: cell-based; settings: pentamidine 100 μM
T4 construct: expressed in transfected cells; host or cells: Xenopus laevis oocytes injected with mRNA
Description: If the 10 mutations discussed above drove the loss of function in vertebrate delta iGluRs, one might expect that the latter could be “reawakened” via active invertebrate delta iGluR-like mutations here. We therefore engineered mutant RatGluD2 iGluRs to contain at these positions the equivalent residues from starfish delta iGluRs. These mutants were RatGluD2^5x, containing Y613F, A686S, K694R, N720P, and P806D substitutions (pink in Fig. 6A), and RatGluD2^9x, additionally containing N763K, D753Q, Q786M, and R787V (cyan in Fig. 6A).
Fig. 6. AcaGluD-like mutations alter RatGluD2 receptor function. (A) D-serine bound RatGluD2 from X-ray structure PDB:2v3u ([13]). Selected amino acid residues are indicated, colored, shown as sticks, and labeled 5×, 9×, 10×, and/or Lc according to the multiple mutants they were incorporated into. 10× mutant included 10×, 9×, and 5× positions. 9× included 9× and 5×. 5× included only 5×. […] (B–E) Example current responses to different neurotransmitter ligands (30 mM) and to pore blocker pentamidine (Pent, 100 μM) in oocytes expressing indicated RatGluD2 mutants. The dashed line indicates zero current baseline. (F) Individual (dots) and mean (columns) responses to ligands in oocytes expressing indicated RatGluD2 mutants (n = 4 to 5).

[5] = molecular target: RatGluA2 AMPA receptors (Rattus norvegicus, UniProt P19491); test: Two-electrode voltage clamp, glutamate-gated current in oocytes expressing RatGluA2 and human TARPγ2; assay type: cell-based; settings: n = 5
Description: (dots) and resulting means (columns).

[6] = system: F640Y AcaGluD; test: Two-electrode voltage clamp, GABA-gated current before/after concanavalin A treatment; assay type: cell-based, Acanthaster planci; settings: concanavalin A 10 μM, 30 mM GABA
Description: (§1) Fig. 5. RatGluD2-like substitutions impair the ligand-gated activity of AcaGluD receptors. (A) Ligand-gated currents in oocytes expressing indicated mutant AcaGluD receptors or uninjected oocytes. (B) Maximum current amplitude (“Imax”, Upper) and relative ligand-gated current amplitude (“I/Imax”, Lower) and at wild-type (WT) and mutant AcaGluD receptors (mean ± SEM, n = 3 to 5). (C) Immunolabeling c-Myc tag in AcaGluD C-terminal. Upper, example micropgraphs. Lower, […] fluorescence units (RFU) plotted against relative radial distance, peaking at the oocyte surface. White scale bars, 100 μm. (D) AlphaFold model of two adjacent AcaGluD LBDs (rear LBD faded). Selected amino acid residues colored and shown as sticks. Magenta, drastic loss of function; cyan, moderate loss of function. […] (E) Upper, example, and Lower, summarized current responses to 30 mM GABA (“IGABA”) in WT or mutant AcaGluD-expressing oocytes before or after treatment with concanavalin A (“ConA”, 10 μM).

[7] = system: R721K AcaGluD; test: as above; assay type: cell-based, Acanthaster planci; settings: concanavalin A 10 μM, 30 mM GABA
Description: as §1

[8] = system: D825P AcaGluD; test: as above; assay type: cell-based, Acanthaster planci; settings: concanavalin A 10 μM, 30 mM GABA
Description: as §1

[9] = system: S713A AcaGluD; test: as above; assay type: cell-based, Acanthaster planci; settings: concanavalin A 10 μM, 30 mM GABA
Description: as §1

RatGluA2 AMPA receptors, sequence (P19491 22-883 isoform P19491-2 limits assumed): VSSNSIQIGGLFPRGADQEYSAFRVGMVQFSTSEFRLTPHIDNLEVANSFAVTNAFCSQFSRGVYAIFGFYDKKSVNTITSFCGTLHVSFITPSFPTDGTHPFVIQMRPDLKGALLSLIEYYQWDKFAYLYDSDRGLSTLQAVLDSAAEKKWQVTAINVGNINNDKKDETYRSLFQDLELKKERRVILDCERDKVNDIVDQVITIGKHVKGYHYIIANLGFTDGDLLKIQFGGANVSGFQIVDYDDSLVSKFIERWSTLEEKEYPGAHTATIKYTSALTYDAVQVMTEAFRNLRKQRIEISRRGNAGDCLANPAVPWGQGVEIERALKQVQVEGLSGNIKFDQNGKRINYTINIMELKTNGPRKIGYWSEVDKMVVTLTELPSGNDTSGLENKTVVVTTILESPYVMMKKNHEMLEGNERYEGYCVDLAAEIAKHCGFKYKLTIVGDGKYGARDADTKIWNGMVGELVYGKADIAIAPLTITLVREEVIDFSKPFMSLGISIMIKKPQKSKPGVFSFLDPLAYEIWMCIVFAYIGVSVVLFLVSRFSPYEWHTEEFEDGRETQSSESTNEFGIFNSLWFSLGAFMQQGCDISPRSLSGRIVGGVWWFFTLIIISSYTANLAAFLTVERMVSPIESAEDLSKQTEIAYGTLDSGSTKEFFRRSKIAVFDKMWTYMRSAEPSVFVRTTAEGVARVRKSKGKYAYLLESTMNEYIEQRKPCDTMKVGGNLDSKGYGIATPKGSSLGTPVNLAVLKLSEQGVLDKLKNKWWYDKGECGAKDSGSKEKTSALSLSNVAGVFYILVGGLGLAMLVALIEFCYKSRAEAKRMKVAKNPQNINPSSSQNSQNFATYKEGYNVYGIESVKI
RatGluA2 AMPA receptors, sequence (Q9Y698 whole entry partner): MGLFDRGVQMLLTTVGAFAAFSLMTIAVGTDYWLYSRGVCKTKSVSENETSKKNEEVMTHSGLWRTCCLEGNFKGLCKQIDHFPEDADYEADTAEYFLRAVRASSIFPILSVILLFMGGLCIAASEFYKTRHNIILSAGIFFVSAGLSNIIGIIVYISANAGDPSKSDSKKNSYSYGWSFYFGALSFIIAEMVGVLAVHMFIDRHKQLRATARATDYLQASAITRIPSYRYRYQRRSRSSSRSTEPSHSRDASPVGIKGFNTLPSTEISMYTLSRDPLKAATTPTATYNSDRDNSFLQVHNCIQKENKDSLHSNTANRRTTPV
T4 sequence (Q63226 24-1007 Y613F/A654T/A686S/K694R/N720P/D753Q/N763K/Q786M/R787V/P806D): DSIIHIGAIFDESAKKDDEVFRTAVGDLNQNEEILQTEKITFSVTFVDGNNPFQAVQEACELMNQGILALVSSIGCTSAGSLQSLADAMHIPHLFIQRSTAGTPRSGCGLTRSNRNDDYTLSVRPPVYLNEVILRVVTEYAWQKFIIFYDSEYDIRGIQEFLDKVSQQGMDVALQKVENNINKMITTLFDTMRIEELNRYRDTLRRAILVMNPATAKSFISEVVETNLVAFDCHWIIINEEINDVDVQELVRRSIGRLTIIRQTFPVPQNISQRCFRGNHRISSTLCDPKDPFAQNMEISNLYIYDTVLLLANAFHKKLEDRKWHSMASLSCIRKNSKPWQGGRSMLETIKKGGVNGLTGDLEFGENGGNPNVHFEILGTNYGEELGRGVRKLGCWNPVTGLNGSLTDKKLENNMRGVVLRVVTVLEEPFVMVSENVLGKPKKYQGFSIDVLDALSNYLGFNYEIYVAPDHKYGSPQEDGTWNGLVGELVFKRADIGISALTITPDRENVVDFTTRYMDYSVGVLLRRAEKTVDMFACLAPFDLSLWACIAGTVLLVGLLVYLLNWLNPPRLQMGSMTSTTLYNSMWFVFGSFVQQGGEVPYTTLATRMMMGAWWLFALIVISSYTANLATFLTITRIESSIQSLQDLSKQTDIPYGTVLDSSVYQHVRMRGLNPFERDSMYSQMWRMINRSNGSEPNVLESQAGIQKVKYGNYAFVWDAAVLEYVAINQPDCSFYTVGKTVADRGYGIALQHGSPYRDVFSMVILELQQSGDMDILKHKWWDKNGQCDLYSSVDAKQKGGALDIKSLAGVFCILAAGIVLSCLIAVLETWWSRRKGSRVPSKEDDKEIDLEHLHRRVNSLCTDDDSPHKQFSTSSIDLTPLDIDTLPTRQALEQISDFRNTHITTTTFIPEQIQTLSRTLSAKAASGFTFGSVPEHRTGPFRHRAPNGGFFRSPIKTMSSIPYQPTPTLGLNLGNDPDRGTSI

NS(=O)(=O)c1cccc2c1c([N+](=O)[O-])cc1nc(O)c(O)nc12 [NBQX]
inhibition of constitutive currents [1]: 9 ± 0.2% | currents elicited when applied alone ([2]; 100 μM, applied alone): elicited no currents | inhibition of GABA-gated current ([2]; 100 μM, coapplied with ~EC30 GABA concentration): 61 ± 3% | enhancement of glutamate-gated currents ([2]; 100 μM, n = 5): 34 ± 3% | effect on oocytes expressing WT RatGluD2 [3]: no effect

N=C(N)c1ccc(OCCCCCOc2ccc(C(=N)N)cc2)cc1 [pentamidine]
effect on glycine-gated currents [4]: inhibited | inhibition at 100 µM ([2]; 100 μM, n = 5, read-out: block of GABA-gated current): 68 ± 5% | inhibition at 100 µM ([2]; 100 µM, n = 7, read-out: block of glutamate-gated current): 78 ± 2% | inhibition at 100 µM [5]: 37 ± 3%

Concanavalin A
increase in activity (GABA-gated current) after treatment [6]: > 100 fold | increase in activity (GABA-gated current) after treatment [7]: > 100 fold | increase in current amplitude after treatment [8]: fourfold increase | increase in activity (GABA-gated current) after treatment [9]: > 100 fold
